Results published in patent US12643906B2, “Fused aza-heterocyclic amide compound and use thereof” (CSPC ZHONGQI PHARMACEUTICAL TECHNOLOGY (SHIJIAZHUANG) CO., …, priority 2020, dated 2026).
Read-outs that look alike come from different tables or passages of the source.

Legend:
[1] = target: T1, TRKA (Homo sapiens, UniProt P04629); assay: HTRF kinase inhibition assay, TRKA; format: biochemical
T1 construct: purchased Bioduro
Procedure: (§1) The compound to be tested with a certain concentration gradient and an enzyme solution were successively added into a plate (kinase buffer (1× kinase buffer (Cisbio, Cat #62EZBFDD), pH 7.5; 5 mM MgCl2, 1 mM DTT) was added into negative control wells), and the compound plate was centrifuged at 1000 rpm for 30 seconds. The plate was sealed and incubated in a Constant Temperature Incubator at 25° C. for 30 min. A substrate solution containing TK-Sub-biotin (Cisbio, Cat #61TKOBL) and ATP (Sigma, Cat #R0441) was prepared, the substrate solution was added into a 384-well plate, and the plate was centrifuged at 1000 rpm for 30 seconds. The plate was sealed and incubated in a Constant Temperature Incubator at 25° C. for 60 min.
(§2) TK antibody and XL665 were diluted, mixed and added into the assay plate, and the plate was centrifuged at 1000 rpm for 30 seconds. The plate was sealed and incubated in a Constant Temperature incubator Incubator at 25° C. for 60 min. The assay plate was placed on an Envision reader for reading. (HTRF 665/615 ratio: signal value at 665 nm/signal value at 615 nm) Inhibition=(rationegative control well−ratiocompound well)/(rationegative control well−ratioenzyme-free control well)×100% 1.3 Data Analysis and Curve Fitting
(§3) Data were fitted in XLFit excel add-in version 5.4.0.8 to obtain IC50 values.

[2] = target: T2, TRKB (Homo sapiens, UniProt Q16620); assay: HTRF kinase inhibition assay, TRKB; format: biochemical
T2 construct: purchased Bioduro
T2 sequence (Q16620 32-822): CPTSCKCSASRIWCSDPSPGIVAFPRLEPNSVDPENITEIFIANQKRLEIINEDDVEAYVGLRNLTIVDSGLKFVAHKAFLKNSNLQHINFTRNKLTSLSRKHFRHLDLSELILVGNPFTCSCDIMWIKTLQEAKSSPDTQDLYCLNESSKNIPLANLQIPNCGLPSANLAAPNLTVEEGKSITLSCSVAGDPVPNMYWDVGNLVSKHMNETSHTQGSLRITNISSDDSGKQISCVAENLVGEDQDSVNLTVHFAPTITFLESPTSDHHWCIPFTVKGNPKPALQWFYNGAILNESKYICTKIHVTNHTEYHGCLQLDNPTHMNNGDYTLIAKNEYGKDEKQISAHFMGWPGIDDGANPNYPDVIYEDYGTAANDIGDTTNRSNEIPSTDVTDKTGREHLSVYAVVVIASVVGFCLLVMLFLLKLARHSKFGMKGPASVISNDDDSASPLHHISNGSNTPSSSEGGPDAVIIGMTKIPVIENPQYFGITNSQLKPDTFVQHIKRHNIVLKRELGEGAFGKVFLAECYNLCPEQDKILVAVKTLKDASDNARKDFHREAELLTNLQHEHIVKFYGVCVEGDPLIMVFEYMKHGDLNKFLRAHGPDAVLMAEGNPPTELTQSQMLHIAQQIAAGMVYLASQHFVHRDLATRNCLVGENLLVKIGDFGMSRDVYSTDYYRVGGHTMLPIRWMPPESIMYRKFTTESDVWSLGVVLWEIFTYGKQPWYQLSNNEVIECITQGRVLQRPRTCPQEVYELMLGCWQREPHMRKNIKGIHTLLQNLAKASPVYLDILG
Procedure: as §1
(§4) TK antibody and XL665 were diluted, mixed and added into the assay plate, and the plate was centrifuged at 1000 rpm for 30 seconds. The plate was sealed and incubated in a Constant Temperature incubator Incubator at 25° C. for 60 min. The assay plate was placed on an Envision reader for reading.
as §3

[3] = target: T3, TRKC (Homo sapiens, UniProt Q16288); assay: HTRF kinase inhibition assay, TRKC; format: biochemical
T3 construct: purchased Bioduro
T3 sequence (Q16288 32-839): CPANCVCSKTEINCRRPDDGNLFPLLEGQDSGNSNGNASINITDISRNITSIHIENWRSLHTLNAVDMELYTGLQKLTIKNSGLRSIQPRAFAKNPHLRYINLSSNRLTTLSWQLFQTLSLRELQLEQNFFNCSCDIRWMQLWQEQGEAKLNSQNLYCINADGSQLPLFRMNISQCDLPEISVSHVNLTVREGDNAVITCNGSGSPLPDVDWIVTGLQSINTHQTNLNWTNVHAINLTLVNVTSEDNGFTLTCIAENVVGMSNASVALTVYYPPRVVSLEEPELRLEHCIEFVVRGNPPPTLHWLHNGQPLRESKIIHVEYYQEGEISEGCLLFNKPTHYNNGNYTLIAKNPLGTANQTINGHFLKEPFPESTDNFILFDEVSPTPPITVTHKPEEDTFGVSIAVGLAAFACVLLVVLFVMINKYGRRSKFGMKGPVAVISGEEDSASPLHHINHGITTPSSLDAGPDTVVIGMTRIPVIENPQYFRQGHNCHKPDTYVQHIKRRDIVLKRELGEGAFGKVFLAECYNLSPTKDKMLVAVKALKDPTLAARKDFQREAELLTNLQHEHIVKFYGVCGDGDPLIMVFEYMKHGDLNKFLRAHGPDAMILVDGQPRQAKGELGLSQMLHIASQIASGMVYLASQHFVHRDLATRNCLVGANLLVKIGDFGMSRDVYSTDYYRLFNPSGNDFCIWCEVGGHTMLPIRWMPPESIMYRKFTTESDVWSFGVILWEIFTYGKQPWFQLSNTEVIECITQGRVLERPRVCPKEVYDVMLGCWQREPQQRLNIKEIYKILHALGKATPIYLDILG
Procedure: as §1, §2, §3

[4] = target: T4, TRKA(G595R) (Homo sapiens, UniProt P04629, G595R); assay: HTRF kinase inhibition assay, TRKA(G595R); format: biochemical
T4 construct: purchased signalchem
Procedure: as §1, §2, §3

[5] = target: T5, TRKA(G667C) (Homo sapiens, UniProt P04629, G667C); assay: HTRF kinase inhibition assay, TRKA(G667C); format: biochemical
T5 construct: purchased signalchem
Procedure: as §1, §2, §3

[6] = target: T6, TRKC(G623R) (Homo sapiens, UniProt Q16288, G623R); assay: HTRF kinase inhibition assay, TRKC(G623R); format: biochemical
T6 construct: purchased Bioduro
T6 sequence (Q16288 32-839 G623R): as the sequence (Q16288 32-839) above, with G592R counted along it
Procedure: as §1, §2, §3

[7] = target: T7, TRKC(G696A) (Homo sapiens, UniProt Q16288, G696A); assay: HTRF kinase inhibition assay, TRKC(G696A); format: biochemical
T7 construct: purchased Bioduro
T7 sequence (Q16288 32-839 G696A): as the sequence (Q16288 32-839) above, with G665A counted along it
Procedure: as §1, §4, §3

[8] = target: T8, ALK (Homo sapiens, UniProt Q9UM73); assay: Kinase inhibition assay with fluorescein labeled peptide, ALK; format: biochemical
T8 construct: purchased Carna 08-105
T8 sequence (Q9UM73 1058-1620 limits assumed): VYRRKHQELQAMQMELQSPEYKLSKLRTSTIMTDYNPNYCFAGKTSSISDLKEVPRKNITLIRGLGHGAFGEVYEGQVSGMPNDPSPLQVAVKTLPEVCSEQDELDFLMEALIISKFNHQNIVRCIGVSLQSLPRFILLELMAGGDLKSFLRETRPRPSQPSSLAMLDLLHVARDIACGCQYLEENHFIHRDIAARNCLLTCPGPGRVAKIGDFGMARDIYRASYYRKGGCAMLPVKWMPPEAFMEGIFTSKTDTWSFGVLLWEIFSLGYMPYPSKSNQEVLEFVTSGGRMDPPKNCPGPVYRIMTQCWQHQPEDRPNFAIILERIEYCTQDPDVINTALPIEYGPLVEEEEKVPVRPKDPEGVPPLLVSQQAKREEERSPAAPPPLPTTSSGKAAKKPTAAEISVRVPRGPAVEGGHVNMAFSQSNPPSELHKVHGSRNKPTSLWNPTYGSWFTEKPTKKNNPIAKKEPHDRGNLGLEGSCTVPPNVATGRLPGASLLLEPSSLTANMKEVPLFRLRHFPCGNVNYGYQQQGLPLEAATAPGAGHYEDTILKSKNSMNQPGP
Procedure: (§5) Compounds were diluted to a certain concentration in DMSO with 4-fold gradients. The compound with a certain concentration, an enzyme solution and DMSO were added into a 384-well plate, and the plate was incubated at room temperature for 10 min. […] The plate was subjected to reading.

[9] = target: T9, ROS1 (Homo sapiens, UniProt P08922); assay: Kinase inhibition assay with fluorescein labeled peptide, ROS1; format: biochemical
T9 construct: purchased Carna 08-163
T9 sequence (P08922 1883-2347 limits assumed): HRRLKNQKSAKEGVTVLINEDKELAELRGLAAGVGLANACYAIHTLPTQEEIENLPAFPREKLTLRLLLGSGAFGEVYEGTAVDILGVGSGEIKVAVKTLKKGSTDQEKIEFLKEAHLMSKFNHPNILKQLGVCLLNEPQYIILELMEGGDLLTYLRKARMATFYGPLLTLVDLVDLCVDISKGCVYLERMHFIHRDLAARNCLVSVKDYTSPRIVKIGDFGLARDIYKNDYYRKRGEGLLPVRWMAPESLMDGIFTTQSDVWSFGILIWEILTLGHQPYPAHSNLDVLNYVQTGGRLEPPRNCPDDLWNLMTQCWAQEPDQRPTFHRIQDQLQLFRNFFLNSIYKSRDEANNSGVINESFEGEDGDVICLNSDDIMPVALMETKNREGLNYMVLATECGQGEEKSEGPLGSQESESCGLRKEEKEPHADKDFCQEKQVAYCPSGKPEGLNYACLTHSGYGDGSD
Procedure: as §5

[10] = target: T10, Ba/F3 ETV6-NTRK2 (Homo sapiens, UniProt Q16620); assay: In vitro cell proliferation inhibition (MTT); format: cell-based, murine; conditions: 72 h, read-out: IC50 Ba/F3 ETV6-NTRK2
T10 construct: fused on or other part: P41212 (Transcription factor ETV6)
T10 sequence (Q16620 whole entry, change not shown, the tested form may be a part): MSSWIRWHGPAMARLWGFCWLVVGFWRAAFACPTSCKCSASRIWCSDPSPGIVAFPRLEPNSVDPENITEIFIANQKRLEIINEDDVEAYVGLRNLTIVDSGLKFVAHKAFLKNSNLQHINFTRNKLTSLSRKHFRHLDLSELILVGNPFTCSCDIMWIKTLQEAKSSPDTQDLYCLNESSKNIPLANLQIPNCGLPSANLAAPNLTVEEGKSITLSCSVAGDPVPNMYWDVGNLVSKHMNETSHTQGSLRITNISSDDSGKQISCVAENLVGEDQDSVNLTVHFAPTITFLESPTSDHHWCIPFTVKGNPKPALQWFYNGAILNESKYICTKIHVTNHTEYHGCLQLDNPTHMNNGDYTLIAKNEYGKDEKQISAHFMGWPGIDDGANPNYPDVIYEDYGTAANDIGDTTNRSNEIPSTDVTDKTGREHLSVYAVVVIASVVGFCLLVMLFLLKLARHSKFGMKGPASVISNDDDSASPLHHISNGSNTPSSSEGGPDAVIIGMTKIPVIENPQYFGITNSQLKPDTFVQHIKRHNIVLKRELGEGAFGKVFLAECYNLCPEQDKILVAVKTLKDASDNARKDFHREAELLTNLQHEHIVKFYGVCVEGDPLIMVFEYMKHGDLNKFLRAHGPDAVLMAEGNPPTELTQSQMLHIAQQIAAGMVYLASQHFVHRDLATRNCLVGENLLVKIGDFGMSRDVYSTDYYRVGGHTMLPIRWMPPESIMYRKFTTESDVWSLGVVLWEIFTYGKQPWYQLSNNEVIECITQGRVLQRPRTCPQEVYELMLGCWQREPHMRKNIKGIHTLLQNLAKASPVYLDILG
Procedure: (§6) Cells in the logarithmic growth phase were harvested and counted using a […]. The cell suspension with a certain density was pipetted uniformly and seeded into a 96-well plate with each well of 100 μL, and shaken to make the cells uniformly disperse into the wells. 100 μL of compound solution with certain concentration gradient was added into each well, and 3 duplicate wells were set for each concentration. The plate was cultured in a CO2 incubator at 37° C. for 72 h. 20 μL of MTT working solution (5 mg/mL) was added into each well, and the plate was placed at 37° C. for 4 h, and centrifuged at 1000 rpm for 5 min by a plate centrifuge. After 180 μL of culture medium was discarded, the plate was added with 150 μL of DMSO, and mixed well with a microplate shaker, the plate bottom was wiped, and optical density (OD) at 550 nm was detected with a microplate reader.

[11] = target: T11, Ba/F3 ETV6-NTRK3-G623R (Homo sapiens, UniProt Q16288, G623R, cells depend on it); assay: In vitro cell proliferation inhibition (MTT); format: cell-based, murine; conditions: 72 h, read-out: IC50 Ba/F3 ETV6-NTRK3-G623R
T11 construct: fused on or other part: P41212 (Transcription factor ETV6)
T11 sequence (Q16288 whole entry G623R, the tested form may be a part): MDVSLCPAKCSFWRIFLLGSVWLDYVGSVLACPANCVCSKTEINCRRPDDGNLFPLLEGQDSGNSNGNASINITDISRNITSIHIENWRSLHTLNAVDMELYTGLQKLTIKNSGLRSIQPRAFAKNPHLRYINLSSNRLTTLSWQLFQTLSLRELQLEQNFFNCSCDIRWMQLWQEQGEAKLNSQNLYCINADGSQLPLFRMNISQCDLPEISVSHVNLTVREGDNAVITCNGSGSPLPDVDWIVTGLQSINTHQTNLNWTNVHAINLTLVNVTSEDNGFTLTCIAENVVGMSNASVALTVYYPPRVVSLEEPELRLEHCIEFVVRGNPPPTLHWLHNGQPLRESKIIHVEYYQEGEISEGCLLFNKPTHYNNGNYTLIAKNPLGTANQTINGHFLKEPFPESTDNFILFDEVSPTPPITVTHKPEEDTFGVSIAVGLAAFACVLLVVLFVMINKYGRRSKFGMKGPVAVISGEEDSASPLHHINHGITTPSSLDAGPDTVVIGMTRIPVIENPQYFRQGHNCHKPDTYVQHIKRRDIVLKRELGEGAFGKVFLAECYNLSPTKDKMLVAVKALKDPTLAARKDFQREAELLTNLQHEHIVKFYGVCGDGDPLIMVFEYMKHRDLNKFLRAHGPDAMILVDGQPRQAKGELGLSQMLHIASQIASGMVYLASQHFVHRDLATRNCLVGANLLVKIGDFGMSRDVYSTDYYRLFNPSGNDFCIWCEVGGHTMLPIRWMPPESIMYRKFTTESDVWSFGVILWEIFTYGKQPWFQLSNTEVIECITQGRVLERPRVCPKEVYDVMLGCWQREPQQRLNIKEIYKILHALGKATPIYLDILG
Procedure: as §6

[12] = target: T12, Ba/F3 LMNA-NTRK1 (Homo sapiens, UniProt P04629); assay: In vitro cell proliferation inhibition (MTT); format: cell-based, murine; conditions: 72 h, read-out: IC50 Ba/F3 LMNA-NTRK1
T12 construct: fused on or other part: P02545 (Prelamin-A/C)
Procedure: as §6

[13] = target: T13, Ba/F3 LMNA-NTRK1-G595R (Homo sapiens, UniProt P04629, G595R, cells depend on it); assay: In vitro cell proliferation inhibition (MTT); format: cell-based, murine; conditions: 72 h, read-out: IC50 Ba/F3 LMNA-NTRK1-G595R
T13 construct: fused on or other part: P02545 (Prelamin-A/C)
Procedure: as §6

[14] = target: T14, Ba/F3 LMNA-NTRK1-G667C (Homo sapiens, UniProt P04629, G667C, cells depend on it); assay: In vitro cell proliferation inhibition (MTT); format: cell-based, murine; conditions: 72 h, read-out: IC50 Ba/F3 LMNA-NTRK1-G667C
T14 construct: fused on or other part: P02545 (Prelamin-A/C)
Procedure: as §6

[15] = target: T15, Ba/F3 ETV6-NTRK3-G696A (Homo sapiens, UniProt Q16288, G696A, cells depend on it); assay: In vitro cell proliferation inhibition (MTT); format: cell-based, murine; conditions: 72 h, read-out: IC50 Ba/F3 ETV6-NTRK3-G696A
T15 construct: fused on or other part: P41212 (Transcription factor ETV6)
T15 sequence (Q16288 whole entry G696A, the tested form may be a part): as the sequence (Q16288 whole entry G623R, the tested form may be a part) above, with R623G, G696A counted along it
Procedure: • Source of 6 kinds of cell lines for the test: KYinno Biotechnology (Beijing) Co., Ltd. • Cell type: murine B cells • Culture medium: RPMI-1640+10% FB S 2. Test Method
as §6

[16] = test system: Ba/F3 LMNA-NTRK1-G595R model; conditions: gavage
Procedure: (§7) The cells in the logarithmic growth phase were collected and re-suspending in serum-free culture medium to make the cell concentration at […] cells/mL. The cell suspension was added with equal volume of Matrigel to make the final cell concentration at 3×10^7-5×10^7 cells/mL. The animal model was established by subcutaneously inoculating 0.1 mL of tumor cell suspension in the axilla of the forelimb of NuNu mice (female, 4-6 weeks, Beijing Vital River Laboratory Animal Technology Co., Ltd.) in an amount of 3×10^6-5×10^6 cells/mouse.
(§8) The maximum and the minimum tumor diameters of the xenografts in nude mice were measured using a vernier caliper, and the tumor volume (TV) was calculated according to the formula: V=½×a×b^2, where a and b represent the maximum and minimum diameters of the tumor mass, respectively. Nude mice with appropriate tumor volume were selected and the mice were evenly divided into 7 groups of 6 mice (100-200 mm^3) by tumor volume using a random number method.
(§9) Tumor diameters were measured twice weekly and tumor volume was calculated. […] (where Ti represents the mean tumor volume of a certain administration group on a certain day; TO represents the mean tumor volume of the administration group at the start of administration, Vi represents the mean tumor volume of the vehicle control group on a certain day (same day as Ti) and V0 represents the mean tumor volume of the vehicle control group at the start of administration); • Tumor inhibition rate: at the end of the test, the animals were executed by removing the cervical vertebrae.

[17] = test system: Ba/F3 LMNA-NTRK1-G667C model; conditions: 100 mg/kg, gavage
Procedure: as §7, §8, §9

[18] = test system: tropomyosin receptor kinase; conditions: 46 evaluable patients, phase I and phase II clinical trials; cited from earlier work

With `O=C(Nc1ccc(C2CCN(C(=O)CO)CC2)cc1)c1cnn2ccc(N3C[C@@H](F)C[C@@H]3c3cc(F)ccc3F)nc12` [Compound 10, 5-((2R,4S)-2-(2,5-difluorophenyl)-4-fluoropyrrolidin-1-yl)-N-(4-(1-(2-hydroxyacetyl)piperidin-4-yl)phenyl)pyrazolo[1,5-a]pyrimidine-3-carboxamide] as the molecule, how does the IC50 [1] read?
Its IC50 is 0.322 nM.

And the IC50 [2]?
Its IC50 is 1.15 nM.

And the IC50 [3]?
The IC50 was 1.04 nM.

What about the IC50 [4] of the same molecule?
The IC50 was under 0.169 nM.

And the IC50 [5]?
Its IC50 is 0.57 nM.

And the IC50 [6]?
Its IC50 is 0.804 nM.

What about the IC50 [7] of the same molecule?
The IC50 was 0.558 nM.

What about the IC50 [8] of the same molecule?
The IC50 was 31 nM.

And the IC50 [9]?
The IC50 was 0.4 nM.

What about the GI50 [10] of the same molecule?
Its GI50 is 0.977 nM.

And the GI50 [11]?
The GI50 was 0.277 nM.

What about the GI50 [12] of the same molecule?
The GI50 was 0.526 nM.

And the GI50 [13]?
The GI50 was 0.095 nM.

And the GI50 [14]?
Its GI50 is 0.536 nM.

And the GI50 [15]?
The GI50 was 0.693 nM.

What about the “Number of animals (Survival/total)” value ([16]; 50 mg/kg) of the same molecule?
The value was “(6/6)”.

And the “Rate of weight gain (%)” value ([16]; 50 mg/kg)?
Its value is 13.47%.

What about the “TGI (%)” value ([16]; 50 mg/kg) of the same molecule?
The value was 134.7%.

And the “Tumor volume (mm^3)” value ([16]; 50 mg/kg)?
The value was 20.0 ± 12.6 mm^3.

And the “Tumor weight” value ([16]; 50 mg/kg)?
Its value is 0.01 ± 0.01 g.

And the “Tumor weight inhibition rate (%)” value ([16]; 50 mg/kg)?
Its value is 98.09%.

And the “Number of animals (Survival/total)” value ([16]; 100 mg/kg)?
The value was “(6/6)”.

And the “Rate of weight gain (%)” value ([16]; 100 mg/kg)?
The value was 4.36%.

What about the “TGI (%)” value ([16]; 100 mg/kg) of the same molecule?
Its value is 132.5%.

What about the “Tumor volume (mm^3)” value ([16]; 100 mg/kg) of the same molecule?
Its value is 25.8 ± 8.3 mm^3.

What about the “Tumor weight” value ([16]; 100 mg/kg) of the same molecule?
Its value is 0.02 ± 0.01 g.

What about the “Tumor weight inhibition rate (%)” value ([16]; 100 mg/kg) of the same molecule?
Its value is 96.75%.

And the “Number of animals (Survival/total)” value [17]?
The value was “(6/6)”.

What about the “Rate of weight gain (%)” value [17] of the same molecule?
Its value is 5.75%.

What about the “TGI (%)” value [17] of the same molecule?
The value was 111.6%.

What about the “Tumor volume (mm^3)” value [17] of the same molecule?
Its value is 91.6 ± 19.5 mm^3.

What about the “Tumor weight” value [17] of the same molecule?
Its value is 0.12 ± 0.02 g.

What about the “Tumor weight inhibition rate (%)” value [17] of the same molecule?
Its value is 77.80%.

For `O=C(Nc1cnn2ccc(N3CCC[C@@H]3c3cc(F)ccc3F)nc12)N1CC[C@H](O)C1` [LOXO-101, Larotrectinib], which IC50 [8] is on record?
Its IC50 is over 1000 nM.

And the GI50 [10]?
Its GI50 is 15.1 nM.

What about the GI50 [11] of the same molecule?
Its GI50 is 376 nM.

What about the GI50 [15] of the same molecule?
Its GI50 is 35.8 nM.

What about the “Overall Response Rate (ORR)” value [18] of the same molecule?
Its value is 78%.
